# Legend:
# elF2α and P-elF2α = assay: Western blot of elF2α and P-elF2α expression; assay type: cell-based, Wistar rats; details: 1, 2, 5, 10, 20, 40 μM for 48 h
# Method: (12000 rpm×10 min), collected supernatant. Nitrocellulose membrane was dipped in a transferring buffer for 15-20 min in advance. Sampled in 50 μg protein/lane, subjected to 10% polyacrylamide gel SDS-PAGE electrophoretic separation, the gel was then tiled in electrotransferring clamp, in which sponge, filter paper, gel, nitrocellulose membrane, filter paper and sponge were mounted from negative electrode to positive electrode in order. Constant current 350 mA, electrotransferred for 45 min. Electrotransferring membrane to […], the nitrocellulose membrane was taken out, the membrane was washed with TBST for 2 min, sealed with 5% defatted milk powder at room temperature for 1 h, added with first antibody (1:1000) and incubated at 4° C. overnight, the membrane was washed with TBST, 3 times×5 min, then […] second antibody was added, incubated at room temperature for 1 h, washed with TBST, 3 times×5 min, soaked separately with TSM1 and TSM2 for 5 min and 10 min, developed with chromogenic substrates 6.6 μl NBT and 3.3 μl BCIP dissolved in 1 ml of TSM2, after bonds become clear, the reaction was terminated by washing with water. After the end of development, the records were stored by scanning or taking photos.
# [1] = tested on: cardiac muscle cells induced by Tunicamycin (TM); assay: Survival rate of TM-induced cardiac muscle cells detected by MTT method; assay type: cell-based, Wistar rats; details: for Cell survival rate (%): MTT
# Method: The separation and culture of cardiomyocyte refer to the method of differential adhesion separation (Kreider, A. Messing, H. Doan, S. U. Kim, R. P. Lisak and D. E. Pleasure, Enrichment of Schwann cell cultures from neonatal rat sciatic nerve by differential adhesion, Brain Res 2 (1981), pp. 433-444.), Wistar neonate rats newly born within 24 h were used to obtain primary cardiac muscle cells.
# The separated cardiac muscle cells were inoculated in an amount of 10^4 cells per well to a 96-well plate, and the volume of each well was 100 μl (marginal wells were filled with sterile PBS). […] After continuous inoculation, each well was added with 20 μl of MTT solution (5 mg/ml, formulated with PBS (pH=7.4), i.e., 0.5% MTT), and the cultivation was continued for 4 h. After the end of cultivation, culture medium in wells was carefully sucked out. Each well was added with 150 μl of DMSO, shaken at a low speed in a shaking table for 10 min, so that the crystal was sufficiently dissolved. The optical density (OD) value of each well was measured at wavelength of 490 nm by enzyme-linked immunoassay instrument, and each well was repeatedly measured for 3 times and the results were recorded. The cell survival rate at each time point was calculated according to: […], and a cell growth curve was drawn by using time as abscissa and optical density as ordinate.
structure (smiles),measurement,setting,value
"O=C(/C=C/c1ccccc1)NC(NC(=S)Nc1cccc2cccnc12)C(Cl)(Cl)Cl (stereo not shown) [Compound of Formula I, (2E)-3-phenyl-N-[2,2,2-trichloro-1-[[(8-quinolylamino)thiomethyl]amino]ethyl]-2-acrylamide]",expression level of P-elF2α,elF2α and P-elF2α,gradually increases with the increase of the concentration
same,expression levels of elF2α,elF2α and P-elF2α,no significant change
same,Cell survival rate (%),[1]; 5 μM pretreatment 30 min + TM 5 μg/ml,82.6106 ± 8.1018 %
same,Cell survival rate (%),[1]; 10 μM pretreatment 30 min + TM 5 μg/ml,83.8371 ± 8.2608 %
same,Cell survival rate (%),[1]; 20 μM pretreatment 30 min + TM 5 μg/ml,84.6255 ± 5.5519 %
same,Cell survival rate (%),[1]; 40 μM + TM 5 μg/ml,85.4139 ± 5.6916 %
same,cell survival rate in comparison with the TM group,"[1]; pretreatment in various concentrations, p<0.05",significant increase of cell survival rate
